Laboratory results from US4634663A, “Method and reagent for quantitative determination of N-acetylhexosamine” (Noda Institute for Scientific Research, priority 1983, dated 1987).

Tests used:
Format in all cases: biochemical, Pseudomonas sp. No. 15-1
[1] = system: N-acetylhexosamine oxidase; assay: Activity inhibition of the enzyme by metallic ions or inhibitors
[2] = system: N-acetylhexosamine oxidase; assay: as above; conditions: for Residual activity (%): tris-hydrochloric acid buffer solution of pH 7.5, 1.8mM metallic ion or inhibitor; for Inhibition of enzyme activity (in words): tris-hydrochloric acid buffer pH 7.5, 1.8mM
Method: The activity of the present enzyme was measured in various solutions each comprising a tris-hydrochloric acid buffer solution of pH 7.5 and 1.8mM metallic ion or inhibitor.

[3] = system: N-acetylhexosamine oxidase; assay: Action and specificity for substrate; conditions: in the presence of oxygen
From the text: As shown in the following reaction formula, the present enzyme oxidizes N-acetylhexosamine in the presence of oxygen to form N-acetylhexosaminic acid and hydrogen peroxide.

[4] = system: N-acetylhexosamine oxidase; assay: Activity stabilization by bovine serum albumin during heat treatment; conditions: 1 mg/ml bovine serum albumin, potassium phosphate buffer pH 6.8, 10 minutes heat treatment
Method: Further, in 10 minutes heat treatment at 45° C., the present enzyme is stable between pH 3 and pH 9 and loses its activity rapidly at a more acidic region and slowly at a more alkaline region. In this experiment, the hydrogen peroxide method was adopted, and the residual activity of the present enzyme subjected to 10 minutes heat treatment in a potassium phosphate buffer solution of pH 6.8 at each temperature was compared with the residual activity of the same enzyme subjected to the same treatment in a potassium phosphate buffer solution of pH 6.8 containing 1 mg/ml of bovine serum albumin.

Row | Compound | Residual activity (%) [2] [%] | further results
1 | Oc1cccc2cccnc12 [8-Hydroxyquinoline] |  | Residual activity (%) ([1]; pH 7.5): 102%
2 | O=[N+]([O-])[O-].[Ag+] [AgNO3] |  | Residual activity (%) ([1]; Phosphate buffer solution, 1.8mM): 5%
3 | [Ca+2].[Cl-].[Cl-] [CaCl2] | 91 | 
4 | O=S(=O)([O-])[O-].[Co+2] [CoSO4] | 75 | 
5 | O=S(=O)([O-])[O-].[Cu+2] [CuSO4] | 74 | 
6 | O=C([O-])CN(CCN(CC(=O)[O-])CC(=O)[O-])CC(=O)[O-].[Na+].[Na+].[Na+].[Na+] [EDTA, Ethylenediaminetetraacetic acid sodium salt] |  | Residual activity (%) ([1]; pH 7.5): 87%
7 | O=C(O)CF [FCH2 COONa] | 107 | 
8 | O=S(=O)([O-])[O-].[Fe+2] [FeSO4] | 15 | Inhibition of enzyme activity (in words) [2]: inhibited greatly
9 | NC(=O)CI [ICH2 CONH2] | 90 | 
10 | O=S(=O)([O-])[O-].[Mg+2] [MgSO4] | 86 | 
11 | O=S(=O)([O-])[O-].[Mn+2] [MnSO4] | 84 | 
12 | CC(=O)N[C@H]1[C@H]([C@H](O)[C@H](O)CO)OC(O)(C(=O)O)C[C@@H]1O (stereo partly drawn) [N-acetylneuraminic acid] |  | Action of the enzyme on substrate [3]: hardly acts or does not at all act
13 | [N-]=[N+]=[N-].[Na+] [NaN3] | 103 | 
14 | O=S(=O)([O-])[O-].[Ni+2] [NiSO4] | 64 | Inhibition of enzyme activity (in words) [2]: considerably
15 | O=C(O)c1cc[c]([Hg][Cl])cc1 [PCMB, pChloromercurybenzoate] | 67 | 
16 | CC(=O)[O-].CC(=O)[O-].[Pb+2] [Pb(CH3 COO)2] | 42 | Inhibition of enzyme activity (in words) [2]: considerably
17 | CCCCCCCCCCCCOS(=O)(=O)[O-].[Na+] [SDS, Sodium dodecylsulfate] | 87 | 
18 | O=S(=O)([O-])[O-].[Zn+2] [ZnSO4] | 2 | Inhibition of enzyme activity (in words) [2]: inhibited greatly
19 | c1cnc2c(c1)ccc1cccnc12 [o'-Phenanthroline] | 81 | 
20 | c1ccc(-c2ccccn2)nc1 [α,α'-Dipyridyl] | 106 | 
21 | HgCl2 | 17 | Inhibition of enzyme activity (in words) [2]: inhibited greatly
22 | bovine serum albumin: bovine serum albumin added at 1 mg/ml as stabilizer of the enzyme |  | Effect on enzyme activity on heat treatment [4]: stabilized and moreover slightly enhanced
